ChEMBL document CHEMBL3396981, “Synthesis and in vitro biological evaluation of 2-(phenylcarbamoyl)phenyl 4-substituted benzoates” (Bioorg Med Chem, 2015)
Values after ≈ are worked out from the molar mass of the structure shown.

What was measured:
[1] = system: Mycobacterium tuberculosis; experiment: Antimycobacterial activity against Mycobacterium tuberculosis H37Rv 331/88 after 14 days by microdilution method; assay type: functional; conditions: H37Rv 331/88, 336 h
Mycobacterium kansasii [2] = experiment: Antimycobacterial activity against Mycobacterium kansasii 6509/96 after 21 days by microdilution method; assay type: functional; conditions: 6509/96, 504 h
Mycobacterium kansasii [3] = experiment: Antimycobacterial activity against Mycobacterium kansasii 6509/96 after 14 days by microdilution method; assay type: functional; conditions: 6509/96, 336 h
Mycobacterium kansasii [4] = experiment: Antimycobacterial activity against Mycobacterium kansasii 6509/96 after 7 days by microdilution method; assay type: functional; conditions: 6509/96, 168 h
Mycobacterium avium [5] = experiment: Antimycobacterial activity against INH,RIF,OFX,EMB-resistant Mycobacterium avium 330/88 after 14 days by microdilution method; assay type: functional; conditions: 330/88, 336 h
Mycobacterium avium [6] = experiment: Antimycobacterial activity against INH,RIF,OFX,EMB-resistant Mycobacterium avium 330/88 after 21 days by microdilution method; assay type: functional; conditions: 330/88, 504 h
Mycobacterium kansasii [7] = experiment: Antimycobacterial activity against Mycobacterium kansasii 235/80 after 7 days by microdilution method; assay type: functional; conditions: 235/80, 168 h
[8] = system: Mycobacterium tuberculosis; experiment: Antimycobacterial activity against Mycobacterium tuberculosis H37Rv 331/88 after 21 days by microdilution method; assay type: functional; conditions: H37Rv 331/88, 504 h
Mycobacterium kansasii [9] = experiment: Antimycobacterial activity against Mycobacterium kansasii 235/80 after 14 days by microdilution method; assay type: functional; conditions: 235/80, 336 h
Mycobacterium kansasii [10] = experiment: Antimycobacterial activity against Mycobacterium kansasii 235/80 after 21 days by microdilution method; assay type: functional; conditions: 235/80, 504 h
[11] = Selectivity index, ratio of IC50 for human HepG2 cells to MIC for atypical mycobacteria
[12] = Selectivity index, ratio of IC50 for human HepG2 cells to MIC for Mycobacterium tuberculosis; assay type: toxicity, cell-based; conditions: read-out: Selectivity Index
HepG2 [13] = experiment: Cytotoxicity against human HepG2 cells after 72 hrs by MTT assay; assay type: cell-based; conditions: HepG2, 72 h
HepG2 [14] = experiment: Cytostatic activity against human HepG2 cells after 72 hrs by MTT assay; assay type: functional, cell-based; conditions: HepG2, 72 h
Trichosporon asahii [15] = experiment: Antifungal activity against Trichosporon asahii 1188 after 48 hrs by broth microdilution method; assay type: functional; conditions: Trichosporon asahii, 1188, 48 h
[16] = system: Staphylococcus epidermidis; experiment: Antibacterial activity against Staphylococcus epidermidis H 6966/08 after 24 hrs by broth microdilution method; assay type: functional; conditions: H 6966/08, 24 h
[17] = system: Staphylococcus epidermidis; experiment: Antibacterial activity against Staphylococcus epidermidis H 6966/08 after 48 hrs by broth microdilution method; assay type: functional; conditions: H 6966/08, 48 h
Staphylococcus aureus [18] = experiment: Antibacterial activity against methicillin-resistant Staphylococcus aureus H 5996/08 after 48 hrs by broth microdilution method; assay type: functional; conditions: H 5996/08, 48 h
Staphylococcus aureus [19] = experiment: Antibacterial activity against Staphylococcus aureus CCM 4516/08 after 48 hrs by broth microdilution method; assay type: functional; conditions: CCM 4516/08, 48 h
Trichosporon asahii [20] = experiment: Antifungal activity against Trichosporon asahii 1188 after 24 hrs by broth microdilution method; assay type: functional; conditions: Trichosporon asahii, 1188, 24 h
Enterococcus sp. [21] = experiment: Antibacterial activity against Enterococcus sp. J 14365/08 after 24 hrs by broth microdilution method; assay type: functional; conditions: J 14365/08, 24 h
Enterococcus sp. [22] = experiment: Antibacterial activity against Enterococcus sp. J 14365/08 after 48 hrs by broth microdilution method; assay type: functional; conditions: J 14365/08, 48 h
Staphylococcus aureus [23] = experiment: Antibacterial activity against methicillin-resistant Staphylococcus aureus H 5996/08 after 24 hrs by broth microdilution method; assay type: functional; conditions: H 5996/08, 24 h
Staphylococcus aureus [24] = experiment: Antibacterial activity against Staphylococcus aureus CCM 4516/08 after 24 hrs by broth microdilution method; assay type: functional; conditions: CCM 4516/08, 24 h

With O=C(Oc1ccc(Cl)cc1C(=O)Nc1ccc(Cl)c(Cl)c1)c1ccccc1 the MIC [1] was 1 µM (≈ 0.421 µg/mL), the MIC (Mycobacterium kansasii [2]) was 2 µM (≈ 0.841 µg/mL) and the MIC (Mycobacterium kansasii [3]) was 2 µM (≈ 0.841 µg/mL). It also gave an MIC (Mycobacterium kansasii [4]) of 1 µM (≈ 0.421 µg/mL), an MIC (Mycobacterium avium [5]) of 8 µM (≈ 3.37 µg/mL) and an MIC (Mycobacterium avium [6]) of 8 µM (≈ 3.37 µg/mL). For the same compound, the MIC (Mycobacterium kansasii [7]) was 2 µM (≈ 0.841 µg/mL), the MIC [8] was 1 µM (≈ 0.421 µg/mL) and the MIC (Mycobacterium kansasii [9]) was 4 µM (≈ 1.68 µg/mL). For the same compound, the MIC (Mycobacterium kansasii [10]) was 4 µM (≈ 1.68 µg/mL).

O=C(Nc1ccc(C(F)(F)F)cc1)c1cc(Br)ccc1O showed an MIC [1] of 1 µM (≈ 0.36 µg/mL), an MIC (Mycobacterium kansasii [2]) of 4 µM (≈ 1.44 µg/mL) and an MIC (Mycobacterium kansasii [3]) of 4 µM (≈ 1.44 µg/mL). It also gave an MIC (Mycobacterium kansasii [4]) of 2 µM (≈ 0.72 µg/mL), an MIC (Mycobacterium avium [5]) of 2 µM (≈ 0.72 µg/mL) and an MIC (Mycobacterium avium [6]) of 2 µM (≈ 0.72 µg/mL). It also gave an MIC (Mycobacterium kansasii [7]) of 2 µM (≈ 0.72 µg/mL), an MIC [8] of 1 µM (≈ 0.36 µg/mL) and an MIC (Mycobacterium kansasii [9]) of 2 µM (≈ 0.72 µg/mL). The MIC (Mycobacterium kansasii [10]) was 4 µM (≈ 1.44 µg/mL).

In the case of O=C(Oc1ccc(Br)cc1C(=O)Nc1ccc(C(F)(F)F)cc1)c1ccc(C(F)(F)F)cc1, the MIC [1] is reported as 1 µM (≈ 0.532 µg/mL), the MIC (Mycobacterium kansasii [2]) is reported as 4 µM (≈ 2.13 µg/mL) and the MIC (Mycobacterium kansasii [3]) is reported as 2 µM (≈ 1.06 µg/mL). For the same compound, the MIC (Mycobacterium kansasii [4]) was 1 µM (≈ 0.532 µg/mL), the MIC (Mycobacterium avium [5]) was 2 µM (≈ 1.06 µg/mL) and the MIC (Mycobacterium avium [6]) was 4 µM (≈ 2.13 µg/mL). The MIC (Mycobacterium kansasii [7]) was 1 µM (≈ 0.532 µg/mL), the MIC [8] was 1 µM (≈ 0.532 µg/mL) and the MIC (Mycobacterium kansasii [9]) was 2 µM (≈ 1.06 µg/mL). It also gave an MIC (Mycobacterium kansasii [10]) of 4 µM (≈ 2.13 µg/mL).

For O=C(Oc1ccc(Cl)cc1C(=O)Nc1ccc(C(F)(F)F)cc1)c1ccc(Br)cc1, the “Selectivity Index” value [11] was >12.5, the selectivity ratio [12] was > 50 and the MIC [1] was 1 µM (≈ 0.499 µg/mL). The MIC (Mycobacterium kansasii [2]) was 2 µM (≈ 0.997 µg/mL), the MIC (Mycobacterium kansasii [3]) was 2 µM (≈ 0.997 µg/mL) and the MIC (Mycobacterium kansasii [4]) was 1 µM (≈ 0.499 µg/mL). The MIC (Mycobacterium avium [5]) was 4 µM (≈ 1.99 µg/mL), the MIC (Mycobacterium avium [6]) was 4 µM (≈ 1.99 µg/mL) and the MIC (Mycobacterium kansasii [7]) was 0.5 µM (≈ 0.249 µg/mL). The MIC [8] was 1 µM (≈ 0.499 µg/mL), the IC50 (HepG2 [13]) was > 50 µM and the MIC (Mycobacterium kansasii [9]) was 1 µM (≈ 0.499 µg/mL). The MIC (Mycobacterium kansasii [10]) was 1 µM (≈ 0.499 µg/mL) and the IC50 (HepG2 [14]) was 14.5 µM.

Compound O=C(Oc1ccc(Br)cc1C(=O)Nc1ccc(C(F)(F)F)cc1)c1ccccc1 has an MIC [1] of 1 µM (≈ 0.464 µg/mL), an MIC (Mycobacterium kansasii [2]) of 2 µM (≈ 0.928 µg/mL) and an MIC (Mycobacterium kansasii [3]) of 2 µM (≈ 0.928 µg/mL). It also gave an MIC (Mycobacterium kansasii [4]) of 2 µM (≈ 0.928 µg/mL), an MIC (Mycobacterium avium [5]) of 4 µM (≈ 1.86 µg/mL) and an MIC (Mycobacterium avium [6]) of 4 µM (≈ 1.86 µg/mL). For the same compound, the MIC (Mycobacterium kansasii [7]) was 2 µM (≈ 0.928 µg/mL), the MIC [8] was 1 µM (≈ 0.464 µg/mL) and the MIC (Mycobacterium kansasii [9]) was 2 µM (≈ 0.928 µg/mL). The MIC (Mycobacterium kansasii [10]) was 2 µM (≈ 0.928 µg/mL).

O=C(Nc1ccc(Cl)c(Cl)c1)c1cc(Cl)ccc1O showed an MIC [1] of 4 µM (≈ 1.27 µg/mL), an MIC (Mycobacterium kansasii [2]) of 8 µM (≈ 2.53 µg/mL) and an MIC (Mycobacterium kansasii [3]) of 8 µM (≈ 2.53 µg/mL). The MIC (Mycobacterium kansasii [4]) was 8 µM (≈ 2.53 µg/mL), the MIC (Mycobacterium avium [5]) was 32 µM (≈ 10.1 µg/mL) and the MIC (Mycobacterium avium [6]) was 32 µM (≈ 10.1 µg/mL). It also gave an MIC (Mycobacterium kansasii [7]) of 4 µM (≈ 1.27 µg/mL), an MIC [8] of 8 µM (≈ 2.53 µg/mL) and an MIC (Mycobacterium kansasii [9]) of 8 µM (≈ 2.53 µg/mL). For the same compound, the MIC (Mycobacterium kansasii [10]) was 8 µM (≈ 2.53 µg/mL).

In the case of O=C(Oc1ccc(Cl)cc1C(=O)Nc1ccc(C(F)(F)F)cc1)c1ccc([N+](=O)[O-])cc1, the “Selectivity Index” value [11] is reported as >12.5, the selectivity ratio [12] is reported as > 50 and the MIC [1] is reported as 0.5 µM (≈ 0.232 µg/mL). The MIC (Mycobacterium kansasii [2]) was 4 µM (≈ 1.86 µg/mL), the MIC (Mycobacterium kansasii [3]) was 2 µM (≈ 0.93 µg/mL) and the MIC (Mycobacterium kansasii [4]) was 1 µM (≈ 0.465 µg/mL). For the same compound, the MIC (Mycobacterium avium [5]) was 4 µM (≈ 1.86 µg/mL), the MIC (Mycobacterium avium [6]) was 4 µM (≈ 1.86 µg/mL) and the MIC (Mycobacterium kansasii [7]) was 1 µM (≈ 0.465 µg/mL). For the same compound, the MIC [8] was 1 µM (≈ 0.465 µg/mL), the IC50 (HepG2 [13]) was > 50 µM and the MIC (Mycobacterium kansasii [9]) was 2 µM (≈ 0.93 µg/mL). It also gave an MIC (Mycobacterium kansasii [10]) of 4 µM (≈ 1.86 µg/mL) and an IC50 (HepG2 [14]) of 1.15 µM.

For Cc1ccc(C(=O)Oc2ccc(Br)cc2C(=O)Nc2ccc(C(F)(F)F)cc2)cc1, the “Selectivity Index” value [11] was >6.25, the MIC (Trichosporon asahii [15]) was > 125 µM and the selectivity ratio [12] was > 50. For the same compound, the MIC [1] was 1 µM (≈ 0.478 µg/mL), the MIC (Mycobacterium kansasii [2]) was 4 µM (≈ 1.91 µg/mL) and the MIC [16] was > 125 µM. It also gave an MIC (Mycobacterium kansasii [3]) of 2 µM (≈ 0.957 µg/mL), an MIC (Mycobacterium kansasii [4]) of 2 µM (≈ 0.957 µg/mL) and an MIC (Mycobacterium avium [5]) of 4 µM (≈ 1.91 µg/mL). For the same compound, the MIC (Mycobacterium avium [6]) was 8 µM (≈ 3.83 µg/mL), the MIC [17] was > 125 µM and the MIC (Staphylococcus aureus [18]) was > 125 µM. The MIC (Staphylococcus aureus [19]) was > 125 µM, the MIC (Mycobacterium kansasii [7]) was 1 µM (≈ 0.478 µg/mL) and the MIC (Trichosporon asahii [20]) was > 125 µM. The MIC (Enterococcus sp. [21]) was > 125 µM, the MIC [8] was 1 µM (≈ 0.478 µg/mL) and the MIC (Enterococcus sp. [22]) was > 125 µM. The IC50 (HepG2 [13]) was > 50 µM, the MIC (Mycobacterium kansasii [9]) was 2 µM (≈ 0.957 µg/mL) and the MIC (Staphylococcus aureus [23]) was > 125 µM. The MIC (Staphylococcus aureus [24]) was > 125 µM, the MIC (Mycobacterium kansasii [10]) was 2 µM (≈ 0.957 µg/mL) and the IC50 (HepG2 [14]) was 26.8 µM.

In the case of O=C(Oc1ccc(Br)cc1C(=O)Nc1ccc(C(F)(F)F)cc1)c1ccc(Br)cc1, the “Selectivity Index” value [11] is reported as >6.25, the selectivity ratio [12] is reported as > 50 and the MIC [1] is reported as 1 µM (≈ 0.543 µg/mL). It also gave an MIC (Mycobacterium kansasii [2]) of 4 µM (≈ 2.17 µg/mL), an MIC (Mycobacterium kansasii [3]) of 4 µM (≈ 2.17 µg/mL) and an MIC (Mycobacterium kansasii [4]) of 4 µM (≈ 2.17 µg/mL). The MIC (Mycobacterium avium [5]) was 8 µM (≈ 4.35 µg/mL), the MIC (Mycobacterium avium [6]) was 8 µM (≈ 4.35 µg/mL) and the MIC (Mycobacterium kansasii [7]) was 1 µM (≈ 0.543 µg/mL). The MIC [8] was 1 µM (≈ 0.543 µg/mL), the IC50 (HepG2 [13]) was > 50 µM and the MIC (Mycobacterium kansasii [9]) was 2 µM (≈ 1.09 µg/mL). The MIC (Mycobacterium kansasii [10]) was 4 µM (≈ 2.17 µg/mL) and the IC50 (HepG2 [14]) was 4.2 µM.
